Assays:
[1] = Binding ability of phage clones to silicon particles; details: peptide expressed on phage clone
Experimental: (§1) By using the phage clone obtained in Example 1, the binding ability to titanium was evaluated by the following experiment. The same method as for panning operation shown in Example 1 was performed. The difference between Example 1 is that the stirring time of titanium and phage clone was 1 hour; the Tween 20 concentration and BSA concentration in each solution was 0.5%, and 1%, respectively, and that the titer of the phage added was 10^9 pfu for clone from D12, and 10^11 pfu for clone from C7C.
(§2) To investigate the binding specificity of phage clone expressing a peptide comprising an amino acid sequence shown in SEQ ID NO: 3 to metal material, to 10 mg each of gold (purity>99.9%, particle diameter<150 μm)/silver (purity>99.9%, particle diameter<75 μm)/copper (purity>99%, particle diameter 75-150 μm)/platinum (purity>99.9%, particle diameter<75 μm)/iron (purity>99.9%, particle diameter<150 μm)/tin (purity>99.9%, particle diameter<150 μm)/zinc (purity>99.9%, particle diameter<150 μm)/chrome (purity>98%, particle diameter>10 μm)/cobalt (purity>99%, particle diameter<75 μm)/silicon (purity>99%, particle diameter<150 μm) (Kojundo Chemical Lab., Saitama), the binding ability to each metal was examined by the same method of Example 2, by using 10^10 pfu/ml of phage clone expressing a peptide comprising an amino acid sequence shown in SEQ ID NO: 3.
(§3) In order to confirm whether the binding form to silver or silicone, and the sequence specificity of the phage clone expressing a peptide comprising an amino acid sequence shown in SEQ ID NO: 3 is similar as in the case of binding to titanium, the binding ability of the alanine substituted-mutant phage of SEQ ID NOs: 4, 5, 7, 8 used in Example 4 to silver/silicon was examined by the method shown in Example 2.

[2] = Adsorption of synthetic peptide to silicon particles, Langmuir adsorption isotherm fitting; assay type: binding; details: Si
Experimental: (§4) In order to confirm whether the synthetic peptide comprising an amino acid sequence shown in SEQ ID NO: 3 binds to titanium surface, the binding ability of the synthetic peptides comprising an amino acid sequence shown in SEQ ID NO: 3 to titanium particles was examined. 10 mg of titanium particles used in Example 1 was put into an Eppendorf tube, washed twice with 50 mM HEPES-NaOH, 150 mM NaCl. Then, 100 μl of 5 to 40 μM of the synthetic peptides of SEQ ID NO: 3, and the mixture was stirred by rotating by using a rotary shaker rotator RT-50 (Taitec) at room temperature for 2 hours. By centrifuging with a desk-top centrifuge H-1300 (Kokusan, Tokyo), at 13,000 rpm, for 5 sec., the supernatant was removed, mixed with fluoro aldehyde (Pias Rockford, Ill.), and by using a spectrofluorometer (Nippon Bunko, Tokyo), at excitation wave length 342 nm, fluorescent wave length 437 nm, the binding level to titanium was calculated from the peptide concentration of the supernatant. The relative surface area of titanium was calculated from the density and mean particle diameter. Further, the binding ability of the synthetic peptide comprising an amino acid sequence shown in SEQ ID NO: 2 to silicone/tin used in Example 13 was examined by the same method. […]

[3] = Binding ability of phage clones to silver particles; details: peptide expressed on phage clone
Experimental: as §1, §2, §3

[4] = Binding ability of phage clones to titanium particles (eluted phage titer / added phage titer); details: peptide expressed on phage clone; for binding ability to titanium: titanium particles, mutants compared with SEQ ID NO: 3 clone
Experimental: 10 mg of titanium particle with a particle diameter of […] (Sumitomo Titanium Corporation, Hyogo) was put into a 1.5 ml-Eppendorf tube, and washed twice with a solution of 500 μl of 50 mM tris (hydroxymethyl) aminomethane (herein after referred to as tris (Kishida Chemical (Osaka)) HCl buffer pH 7.5; 150 mM of sodium chloride (Wako Pure Chemicals, Osaka) solution (herein after referred to as TBS) supplemented with 0.1% bovine serum albumin (herein after referred to as BSA), 0.1% Polyoxyethylenesorbitan monolaurate (herein after referred as Tween-20 (Sigma, St. Louis)). Washing of titanium particles was performed by centrifuging with a desktop centrifuge H1300 (Kokusan) at 13,000 rpm, 5 sec, to precipitate titanium particles and to remove supernatant. After washing, in order to block the non-specific adsorption of the phage, the mixture was stirred by rotating with 1 ml of the same solution for 30 min at room temperature by using a rotary shaker rotator RT-50 (Taitec).
By centrifuging with a desktop centrifuge H1300 (Kokusan) at 13,000 rpm, 5 sec, titanium particles were precipitated, the supernatant was removed, and then 1 ml TBS containing peptide-expressing phage library, D12 library expressing linear random peptide of 12 residues (New England Biolabs, Beverly), 17×10^11 plaque-forming unit (herein after referred to as pfu), or C7C library expressing cyclic randam peptide of 7 residues (New Engand Biolabs) 2.0×10^11 pfu, 0.1% BSA and 0.1% Tween-20 solution were added, and stirred by rotating for 2 hours, at room temperature with a rotary shaker, rotator RT-50.
By centrifuging with a desktop centrifuge H1300 (Kokusan) at 13,000 rpm, 5 sec, the supernatant was removed, and the resultant was washed 10 times with 1 ml of TBS, 0.1% Tween-20 solution. Washing was performed by centrifuging at 8000×g, 5 sec, by precipitating titanium particles. After removing washing solution, 1 ml of 0.2 M glycine (Wako Pure Chemicals), HCl buffer pH 2.2 were added and stirred by rotating for 10 min at room temperature with rotator RT-50 (Taitec) to elute phage bound to titanium. Titanium was precipitated by centrifugation, and the supernatant was moved to a separate 1.5 ml-Eppendorf tube. Then, 150 μl of 1M tris/HCl buffer pH 9.1 was added to neutralize, and phage titer in the solution (plaque forming ability per unit solution) was measured according to a common procedure (Molecular Cloning Third Edition, Cold Spring Harbor Laboratory Press).
as §1
For clone strongly bound particularly with titanium (SEQ ID NO: 3) in Example 2, point mutants substituted by alanine having only one methyl group in the side chain was prepared and the change of binding ability to titanium was examined for each mutant phage. As point mutant comprises alanine in the 6th position in the expressed sequence, mutants were prepared for all the residues except the 6th residue. The preparation of point mutants was performed by Kunkel method (Molecular Cloning Third Edition, Cold Spring Harbor Laboratory Press). Synthetic DNAs used for preparing point mutants are shown in FIG. 8 (SEQ ID NOs: 40 to 50). The introduction of point mutation was confirmed by determining the DNA sequence of phage DNA. DNA sequencing was performed in the same manner as Example 1. The binding ability to titanium of the obtained point mutants was measured by the method shown in Example 2, by adjusting the phage amount added to 10^10 pfu.
The deletion mutants were prepared by the method shown schematically in FIG. 10. […]

[5] = QCM-D300 quartz crystal microbalance analysis of phage binding to titanium sensor; details: phage clone; frequency and dissipation (viscoelasticity), sensor blocked with BSA
Experimental: As for the clone strongly bound particularly with titanium (expressing peptide of SEQ ID NO: 3), the binding form of titanium surface and phage was examined, by measuring with QCM-D300 (Q-sense AB, Goeteborg), which is a device for quantification of interaction with a quartz crystal microbalance.
For a quartz crystal microbalance, titanium sensor being a genuine part of QCM-D300 was used. The temperature was fixed at 24.99° C., and the actual measurement value was from around 24.68° C. to 24.70° C. It was measured in a condition of blocking the sensor with BSA, and in a condition without blocking. When blocking with BSA is not performed, after measuring the standard value with TBS, the phage solution adjusted so that the phage titer becomes 10^10 pfu/ml was measured continuously. When blocking with BSA is performed, after measuring the standard value with TBS, blocking was conducted by incubating for about 10 min with TBS, 0.1% BSA, and after washing again migrated BSA with TBS, the phage solution adjusted so that the phage titer becomes 10^11 pfu/ml was measured continuously.
From the results shown in FIG. 6, it is clear that the phage clone is bound to the sensor from the change of frequency, under the absence of BSA. […]

[6] = Binding ability of phage clone to copper particles; details: peptide expressed on phage clone
Experimental: as §1, §2

[7] = Adsorption of synthetic peptide to titanium particles, Langmuir adsorption isotherm fitting; assay type: binding; details: Ti
Experimental: as §4

[8] = Binding ability of phage clone to iron particles; details: peptide expressed on phage clone
Experimental: as §1, §2

Row | Substance | binding ability to silicon [1] | binding ability to silver [3] | binding ability to titanium [4] | further results
1 | RALPDA [SEQ ID NO: 2] | binds | binds | binds | qm (maximum adsorption level) [2]: 2.1 ± 0.3 × 10^−7 mole/m^2; Kd ([2]; read-out: Kd (dissociation constant)): 13.2 ± 4 µM
2 | RKLPDA [SEQ ID NO: 1] |  |  | not affected by the deletion | 
3 | RKLPDAPGMHTW [SEQ ID NO: 3, tested on phage clone and as synthetic peptide] |  |  | much higher | binding form of phage to titanium surface [5]: bound perpendicularly to titanium surface; binding to copper [6]: below the detection limit; binding ability to titanium treated with hydrogen peroxide ([4]; titanium particles treated with 3% hydrogen peroxide for 1 hour): increased; Kd ([7]; synthetic peptide 5 to 40 μM, 50 mM HEPES-NaOH, 150 mM NaCl, room temperature, 2 hours, read-out: Kd (dissociation constant)): 11.1 ± 2.8 µM; qm (maximum adsorption level) ([7]; synthetic peptide, Langmuir fitting): 2.5 ± 0.3 × 10^−6 mole/m^2; binding to iron [8]: below the detection limit
4 | SEQ ID NO: 4: e3-2-3 mutant, 1st amino acid residue substituted by Ala (AKLPDAPGMHTW) | same trend as for titanium | same trend as for titanium | significantly impaired | 
5 | SEQ ID NO: 5: e3-2-3 mutant, 2nd amino acid residue substituted by Ala (RALPDAPGMHTW) | same trend as for titanium | same trend as for titanium | increased | 
6 | SEQ ID NO: 7: e3-2-3 mutant, 4th amino acid residue substituted by Ala (RKLADAPGMHTW) | same trend as for titanium | same trend as for titanium | the most significantly impaired | 
7 | SEQ ID NO: 8: e3-2-3 mutant, 5th amino acid residue substituted by Ala (RKLPAAPGMHTW) | same trend as for titanium | same trend as for titanium | significantly impaired | 
8 | SEQ ID NO: 15: Ala is added/inserted to N terminal of e-3-2-3 (ARKLPDAPGMHTW) |  |  | increase of the binding ability | 

Source: patent publication US7498403B2, “Peptides capable of binding to titanium silver silicone” (Japan Science and Technology Agency, priority 2003, dated 2009)
